Values quoted from earlier work, collected in patent publication US9512385B2, “Disinfectant solution for nonionic soft contact lenses” (MENICON CO., LTD., priority 2012, dated 2016).

Details: background art statement

polylysine
IC50 value in cytotoxicity test relative to PHMB: about several hundredth part of that of PHMB
